From US7304166B2, “Benzenesulfonate salt of 4-fluoro-2-cyanopyrrolidine derivatives” (Taisho Pharmaceutical Co., Ltd., priority 2002, dated 2007)

Tests used:
Type in all cases: physicochemical
[1] = Testing for weight change under humidified conditions; conditions: room temperature; for State / Change in weight: desiccator containing water
Experimental: Each analyte (10.0 mg) was metered into a microtube (diameter: 8 mm, length: 50 mm) and allowed to stand in a desiccator containing water in such a manner as to keep the tube from coming into contact with water. The desiccator was allowed to stand at room temperature. The analytes were monitored for their state and measured for their weight with time. Changes in weight were expressed as percentages (%).

[2] = Solid-state stability testing (remaining percentage by HPLC)
Experimental: Each analyte (about 1 mg) was precisely metered and stored in a screw-capped test tube covered with aluminum foil for light shielding, which was sealed under heated conditions (70° C.) or opened under heated and humidified conditions (40° C., 75% RH). The remaining percentage of each drug was measured in the following manner. After completion of a given period of storage, the test tubes were supplemented with 10 ml HPLC mobile phase to dissolve the analytes and then provided for quantification by HPLC. The results were compared in area with the initial values obtained before heating or before heating and humidification to calculate the remaining percentage of drugs.
Column temperature: 40° C.
Detection: UV absorptiometer (Detection wavelength: 210 nm)
Mobile phase: water/acetonitrile/phosphoric acid/SDS (700:300:1:2)

[3] = Compatibility testing with additives (remaining percentage by HPLC); conditions: 65° C. for 1 week, sealed, methanesulfonate salt
Experimental: This testing was performed according to the report of Serajuddin A. T. M. et al. (J. Pharm. Sci., 88, 696-704, 1999). A drug substance and additives were metered into a screw-capped test tube according to Recipe A (10 mg drug substance, 68 mg crystalline cellulose, 2 mg magnesium stearate) or Recipe B (10 mg drug substance, 68 mg lactose, 2 mg hydrogenated oil) and mixed in a rotary mixer (MIX-ROTAR VMR-5, Iuchi Seieido Co., Ltd., Japan) for 1 hour. The mixture according to Recipe A or B was further stirred using a vortex mixer (TOUCH MIXER MT-31, Yamato Scientific Co., Ltd., Japan), provided that Recipe A was supplemented with no additional ingredient, while Recipe B was supplemented with 16 μl purified water. The mixtures were stored at 65° C. for 1 week under sealed and completely light-shielded conditions and then measured for drug content after storage to calculate the remaining percentage of each drug in each recipe.
The drug content was determined in the following manner. […] The resulting solutions were each filtered through a 0.45 μm membrane filter, 5 ml of which was sampled and filled up with 50% methanol in a 10 ml measuring flask for use as a sample solution and then quantified by HPLC. […]

[4] = humidified conditions, over the test period
[5] = 40° C., 75% RH for 1 month, opened, light-shielded
[6] = 70° C. for 3 days, sealed, light-shielded

## CC(C)(CO)NCC(=O)N1C[C@@H](F)C[C@H]1C#N.O=S(=O)(O)c1ccccc1 [Example 1, (2S,4S)-2-cyano-4-fluoro-1-[(2-hydroxy-1,1-dimethyl)ethylamino]acetylpyrrolidine benzenesulfonate salt]
[1]; Day 3
  State: No change
[1]; [4]
  Change in weight under humidified conditions: no change in weight
  State under humidified conditions: no deliquescence
[2]; [5]
  Remaining percentage of drug: 99.6%
[2]; [6]
  Remaining percentage of drug: 99.3%
[2]; under either condition (70° C. 3 days; 40° C., 75% RH 1 month)
  Remaining percentage of drug: ≥ 99%

## CC(C)(CO)NCC(=O)N1C[C@@H](F)C[C@H]1C#N.Cl [Reference Example 1, (2S,4S)-2-cyano-4-fluoro-1-[(2-hydroxy-1,1-dimethyl)ethylamino]acetylpyrrolidine hydrochloride salt]
[1]; Day 1
  Change in weight: +44%
  State: Deliquescence
[1]; [4]
  State under humidified conditions: deliquesced
[2]; [5]
  Remaining percentage of drug: 92.6%
[2]; [6]
  Remaining percentage of drug: 97.0%

## CC(C)(CO)NCC(=O)N1C[C@@H](F)C[C@H]1C#N.CS(=O)(=O)O [Reference Example 2, (2S,4S)-2-cyano-4-fluoro-1-[(2-hydroxy-1,1-dimethyl)ethylamino]acetylpyrrolidine methanesulfonate salt]
[1]; Day 1
  Change in weight: +28%
[1]; Day 2
  Change in weight: +71%
  State: Deliquescence
[1]; [4]
  State under humidified conditions: deliquesced
[2]; [5]
  Remaining percentage of drug: 95.9%
[2]; [6]
  Remaining percentage of drug: 95.5%
[3]; Recipe A (crystalline cellulose, magnesium stearate)
  Remaining percentage of drug: 91.6%
[3]; Recipe B (lactose, hydrogenated oil, purified water)
  Remaining percentage of drug: 74.5%
